Laboratory results from patent publication US8278455B2, “5- or 6-substituted benzimidazole derivatives as inhibitors of respiratory syncytial virus replication” (Janssen Pharmaceutica N.V., priority 2003, dated 2012).

Key:
[1] = test system: Respiratory Syncytial Virus; assay: In vitro screening for activity against Respiratory Syncytial Virus (MTT tetrazolium colorimetric assay, HeLa cells); type: cell-based; conditions: protection against RSV cytopathology in HeLa cells, 7 days after infection; for EC50: human respiratory syncytial virus, 168 h
Source text: The percent protection against cytopathology caused by viruses (antiviral activity or EC50) achieved by tested compounds and their cytotoxicity (CC50) are both calculated from dose-response curves. The selectivity of the antiviral effect is represented by the selectivity index (SI), calculated by dividing the CC50 (cytotoxic dose for 50% of the cells) by the EC50 (antiviral activity for 50% of the cells). The tables in the above experimental part list the category to which each of the prepared compounds belong. Compounds belonging to activity category “A” have an pEC50 (−log of EC50 when expressed in molar units) equal to or more than 7. Compounds belonging to activity category “B” have a pEC50 value between 6 and 7.
Automated tetrazolium-based […] assays were used for determination of EC50 and CC50 of test compounds. Flat-bottom, 96-well plastic microtiter trays were filled with 180 μl of Eagle's Basal Medium, supplemented with 5% FCS (0% for FLU) and 20 mM Hepes buffer. Subsequently, stock solutions (7.8× final test concentration) of compounds were added in 45 μl volumes to a series of triplicate wells so as to allow simultaneous evaluation of their effects on virus- and mock-infected cells. Five five-fold dilutions were made directly in the microtiter trays using a robot system. Untreated virus controls, and HeLa cell controls were included in each test. Approximately 100 TCID50 of Respiratory Syncytial Virus was added to two of the three rows in a volume of 50 μl. The same volume of medium was added to the third row to measure the cytotoxicity of the compounds at the same concentrations as those used to measure the antiviral activity. After two hours of incubation, a suspension (4×10^5 cells/ml) of HeLa cells was added to all wells in a volume of 50 μl. The cultures were incubated at 37° C. in a 5% CO2 atmosphere. Seven days after infection the cytotoxicity and the antiviral activity was examined spectrophotometrically. To each well of the microtiter tray, 25 μl of a solution of MTT (3-(4,5-dimethylthiazol-2-yl)-2,5-diphenyltetrazolium bromide) was added. The trays were further incubated at 37° C. for 2 hours, after which the medium was removed from each cup. Solubilization of the formazan crystals was achieved by adding 100 μl 2-propanol. Complete dissolution of the formazan crystals were obtained after the trays have been placed on a plate shaker for 10 min. Finally, the absorbances were read in an eight-channel computer-controlled photometer (Multiskan MCC, Flow Laboratories) at two wavelengths (540 and 690 nm). The absorbance measured at 690 nm was automatically subtracted from the absorbance at 540 nm, so as to eliminate the effects of non-specific absorption.

[2] = pEC50 = −log of EC50 in molar units

Row | Structure (SMILES) | Activity [1, 2] | also measured
1 | Cc1ccc(O)c(Cn2c(NC3CCN(CCN)CC3)nc3ccc(C=Cc4ccccc4)cc32)n1.Cl (hydrate or solvate) [Compound 146, 2-{2-[1-(2-Amino-ethyl)-piperidin-4-ylamino]-6-styryl-benzoimidazol-1-ylmethyl}-6-methyl-pyridin-3-ol hydrochloride salt] | – | melting point: > 260 °C
2 | Cc1cccc(CNc2ccc3nc(NC4CCN(C)CC4)n(Cc4nc(C)ccc4O)c3c2)c1 [Compound 28, 6-methyl-2-[6-(3-methyl-benzylamino)-2-(1-methyl-piperidin-4-ylamino)-benzoimidazol-1-ylmethyl]-pyridin-3-ol] | – | EC50 [1, 2]: 15.8 nM; melting point: 240 °C
3 | Cc1cccc(SCc2ccc3nc(NC4CCN(C)CC4)n(Cc4nc(C)ccc4O)c3c2)c1 [Compound 93, 6-methyl-2-[2-(1-methyl-piperidin-4-ylamino)-6-m-tolylsulfanylmethyl-benzoimidazol-1-ylmethyl]-pyridin-3-ol] | – | EC50 [1, 2]: 251 nM; melting point: 202 °C
4 | Cc1ccc(O)c(Cn2c(NC3CCN(C)CC3)nc3ccccc32)n1 [Compound 101] | – | EC50 [1, 2]: 398 nM; melting point: > 260 °C
5 | Cc1cccc(NC(=O)c2ccc3nc(NC4CCN(C)CC4)n(Cc4nc(C)ccc4O)c3c2)c1 [Compound 116, 3-(3-hydroxy-6-methyl-pyridin-2-ylmethyl)-2-(1-methyl-piperidin-4-ylamino)-3H-benzoimidazole-5-carboxylic acid m-tolylamide] | – | EC50 [1, 2]: 7940 nM; melting point: 172 °C
6 | Cc1ccc(/C=C/c2ccc3nc(NC4CCN(C)CC4)n(Cc4nc(C)ccc4O)c3c2)cc1 [Compound 128] | <4 | –
7 | Cc1cccc(NCc2ccc3c(c2)nc(NC2CCN(C)CC2)n3Cc2nc(C)ccc2O)c1 [Compound 130] | 4.6 | –
8 | Cc1ccc(O)c(Cn2c(NC3CCN(C)CC3)nc3cc(CNc4ccccc4)ccc32)n1 [Compound 131] | <4 | –
9 | Cc1cccc(SCc2ccc3c(c2)nc(NC2CCN(C)CC2)n3Cc2nc(C)ccc2O)c1 [Compound 132] | <4 | –
10 | Cc1ccc(O)c(Cn2c(NC3CCN(C)CC3)nc3ccc(C(=O)NCc4ccccn4)cc32)n1 [Compound 134] | <4 | –
11 | Cc1ccc(O)c(Cn2c(NC3CCN(C)CC3)nc3cc(C(=O)NCc4ccccn4)ccc32)n1 [Compound 135] | <4 | –
12 | Cc1ccc(O)c(Cn2c(NC3CCN(C)CC3)nc3ccc(C(=O)NCCc4ccccc4)cc32)n1 [Compound 136] | <4 | –
13 | Cc1ccc(O)c(Cn2c(NC3CCN(C)CC3)nc3ccc(CN(CCC#N)CCC#N)cc32)n1 [Compound 137] | <4 | –
14 | CCOC(=O)c1ccc2c(c1)nc(NC1CCNCC1)n2Cc1nc(C)ccc1O [Compound 139] | 5.1 | –
15 | CCOC(=O)c1ccc2c(c1)nc(NC1CCN(Cc3ccccc3)CC1)n2Cc1nc(C)ccc1O [Compound 140] | <4 | –
16 | CCOC(=O)c1ccc2nc(NC3CCNCC3)n(Cc3nc(C)ccc3O)c2c1 [Compound 141] | – | Activity ([1]; activity category): C (pEC50 value equal to or below 6)
17 | CCOC(=O)c1ccc2nc(NC3CCN(Cc4ccccc4)CC3)n(Cc3nc(C)ccc3O)c2c1 [Compound 142] | – | Activity ([1]; activity category): C (pEC50 value equal to or below 6)
18 | Cc1ccc(O)c(Cn2c(NC3CCN(CCN)CC3)nc3ccc(CCc4ccccc4)cc32)n1.Cl [Compound 143, 2-{2-[1-(2-amino-ethyl)-piperidin-4-ylamino]-6-phenethyl-benzoimidazol-1-ylmethyl}-6-methyl-pyridin-3-ol hydrochloride salt] | – | EC50 [1, 2]: 1 nM; melting point: 181 °C
19 | Cc1cccc(/C=C/c2ccc3c(c2)nc(NC2CCN(CCN)CC2)n3Cc2nc(C)ccc2O)c1.Cl [Compound 147] | 8.8 | –
20 | Cc1cccc(C(N)c2ccc3nc(NC4CCN(CCO)CC4)n(Cc4nc(C)ccc4O)c3c2)c1 (centres unmarked) [Compound 148, 2-[2-[1-(2-hydroxy-ethyl)-piperidin-4-ylamino]-6-(m-tolyl-amino-methyl)-benzoimidazol-1-ylmethyl]-6-methyl-pyridin-3-ol] | – | melting point: 137 °C
21 | Cc1cc(C)cc(NCc2ccc3nc(NC4CCN(CCO)CC4)n(Cc4nc(C)ccc4O)c3c2)c1 [Compound 149] | 8.8 | –
22 | Cc1cccc(NCc2ccc3nc(NC4CCN(CCCO)CC4)n(Cc4nc(C)ccc4O)c3c2)c1 [Compound 156] | 8.4 | –
23 | Cc1ccc(O)c(Cn2c(NC3CCN(CCN)CC3)nc3cc(CCc4ccccc4)ccc32)n1.Cl [Compound 157] | 7.9 | –
24 | Cc1cccc(CCc2ccc3c(c2)nc(NC2CCN(CCN)CC2)n3Cc2nc(C)ccc2O)c1.Cl [Compound 158] | 7.9 | –
25 | Cc1ccc(O)c(Cn2c(NC3CCN(CCO)CC3)nc3ccc(CNc4cccc(O)c4)cc32)n1 [Compound 159] | 7.9 | –
26 | Cc1ccc(O)c(Cn2c(NC3CCN(CCO)CC3)nc3ccc(CCC#N)cc32)n1 [Compound 161] | 7.8 | –

Row | Structure (SMILES) | Activity [1, 2] | also measured
27 | Cc1ccc(O)c(Cn2c(NC3CCN(CCO)CC3)nc3ccc(CCc4ccccc4)cc32)n1 [Compound 162] | 7.5 | –
28 | Cc1ccc(O)c(Cn2c(NC3CCN(CCC(N)=O)CC3)nc3ccc(CCc4ccccc4)cc32)n1 [Compound 163] | 7.2 | –
29 | Cc1cc(C)cc(NCc2ccc3nc(NC4CCN(Cc5ccccc5)CC4)n(Cc4nc(C)ccc4O)c3c2)c1 [Compound 164] | 7.2 | –
30 | Cc1ccc(O)c(Cn2c(NC3CCN(Cc4ccccc4)CC3)nc3ccc(CNc4cc(Cl)cc(Cl)c4)cc32)n1 [Compound 165] | 7.1 | –
31 | Cc1ccc(O)c(Cn2c(NC3CCN(CCC(N)=O)CC3)nc3cc(C=Cc4ccccc4)ccc32)n1 [Compound 166] | 6.8 | –
32 | Cc1cccc(NCc2ccc3nc(NC4CCN(Cc5ccccc5)CC4)n(Cc4nc(C)ccc4O)c3c2)c1 [Compound 167] | 6.8 | –
33 | Cc1ccc(O)c(Cn2c(NC3CCN(CCO)CC3)nc3cc(CCc4ccccc4)ccc32)n1 [Compound 168] | 6.6 | –
34 | Cc1ccc(O)c(Cn2c(NC3CCN(CCO)CC3)nc3ccc(C=Cc4ccccc4)cc32)n1 [Compound 169] | 6.6 | –
35 | Cc1ccc(O)c(Cn2c(NC3CCN(CCC(N)=O)CC3)nc3cc(CCc4ccccc4)ccc32)n1 [Compound 170] | 5.7 | –
36 | Cc1cc(C)cc(NCc2cc(C)c3nc(NC4CCN(CCO)CC4)n(Cc4nc(C)ccc4O)c3c2)c1 [Compound 172] | 8.5 | –
37 | Cc1cc(C)cc(NCc2ccc3c(c2)nc(NCCCN2CCCCC2)n3Cc2nc(C)ccc2O)c1 [Compound 176] | 7.2 | –
38 | Cc1ccc(O)c(Cn2c(NCCCN3CCCCC3)nc3ccc(CO)cc32)n1 [Compound 177] | 7.1 | –
39 | Cc1ccc(O)c(Cn2c(NCCCN3CCN(C)CC3)nc3ccc(CO)cc32)n1 [Compound 178] | 6.5 | –
40 | Cc1cc(C)cc(NCc2ccc3c(c2)nc(NCCCN2CCN(C)CC2)n3Cc2nc(C)ccc2O)c1 [Compound 179] | 6.2 | –
41 | Cc1cc(C)cc(NCc2ccc3c(c2)nc(NCC(O)CO)n3Cc2nc(C)ccc2O)c1 (centres unmarked) [Compound 180] | 5.6 | –
42 | Cc1ccc(O)c(Cn2c(NCCCN3CCCCC3)nc3cc(CO)ccc32)n1 [Compound 182] | 5 | –
43 | Cc1ccc(O)c(Cn2c(NCCCN3CCN(C)CC3)nc3cc(CO)ccc32)n1 [Compound 183] | 5 | –
44 | Cc1cc(C)cc(NCc2ccc3nc(NCC4COC(C)(C)O4)n(Cc4nc(C)ccc4O)c3c2)c1 (centres unmarked) [Compound 184] | <4 | –
45 | Cc1ccc(O)c(Cn2c(NCCc3ccccc3)nc3cc(CO)ccc32)n1 [Compound 185] | <4 | –
46 | Cc1cc(C)cc(NCc2ccc3c(c2)nc(NCCc2ccccc2)n3Cc2nc(C)ccc2O)c1 [Compound 186] | <4 | –
47 | Cc1cc(C)cc(NCc2ccc3nc(NCCc4ccccc4)n(Cc4nc(C)ccc4O)c3c2)c1 [Compound 187] | <4 | –
48 | Cc1ccc(O)c(Cn2c(NCCc3ccccc3)nc3ccc(CO)cc32)n1 [Compound 188] | 4.4 | –
49 | COc1ccc(CCNc2nc3cc(CO)ccc3n2Cc2nc(C)ccc2O)cc1 [Compound 189] | <4 | –
50 | COc1ccc(CCNc2nc3cc(CNc4cc(C)cc(C)c4)ccc3n2Cc2nc(C)ccc2O)cc1 [Compound 191] | <4 | –
51 | Cc1ccc(O)c(Cn2c(NCCc3ccccc3)nc3ccc(CNc4cc(Cl)cc(Cl)c4)cc32)n1 [Compound 192] | <4 | –
